Experimental findings from patent US10464890B2, “PGAM1 inhibitors and methods related thereto” (Emory University, priority 2011, dated 2019) are described below.

Molecules are shown by their SMILES.

Assay [1] has as its system H1299 cells. In words: Cellular 2-PG and 3-PG measurement. It counts as cell-based, human. On the procedure: Cellular metabolites were extracted and spectrophotometrically measured as described previously with some modifications. To determine cellular concentration of 2-PG and 3-PG, 100 μL of packed cell pellets were homogenized in 1.5 ml of hypotonic lysis buffer (20 mM HEPES (pH 7.0), 5 mM KCl, 1 mM MgCl2, 5 mM DTT, and protease inhibitor cocktail). The homogenates were centrifuged in a cold room at 4° C. for 10 minutes at maximum speed, and the supernatants were applied to Amicon Ultra tubes with 10KDa cut off filter (Millipore). The flow through containing the metabolites was used for the measurement. NADH, ADP, and MgCl2 were added to the flow through to final concentrations of 0.14 mM, 1 mM, and 50 mM, respectively. Recombinant LDH and PKM1 proteins were added to final concentrations of 5 μg/ml and 10 μg/ml, respectively. Recombinant enolase protein was added to a final concentration of 50 μg/ml to measure cellular 2-PG. Once the reaction was initiated by enolase, a decrease in absorbance at 340 nm from NADH oxidation was measured by a DU800 spectrophotometer (Beckman). After termination of the enolase reaction, recombinant PGAM1 protein was added to a final concentration of 25 μg/ml and the decrease in absorbance at 340 nm was immediately monitored to measure cellular 3-PG. 100 μL of 2-PG and 3-PG (Sigma) diluted with 1.5 ml of hypotonic lysis buffer were used as the standards.
Alternatively, perchloric acid was used to quench metabolism and the acid extracts from H1299 cell lysates were then neutralized with KOH (DeBerardinis et al., 2007), followed by enzymatic reactions using the final supernatant to determine the 3-PG and 2-PG levels. An isotope-ratio based detection method was used to determine intracellular 3-PG and 2-PG levels in cells. In brief, pure standards were derivatized with a trimethylsilyl donor (Tri-Sil, Pierce) and used to determine the retention times of 2-PG and 3-PG on GC/MS. These standards were also used to identify parent ions containing all three 2-PG and 3-PG carbons on the derivatized molecule (m/z 459 for both 2-PG and 3-PG), and to generate algorithms for natural isotope abundance correction. Next, two dishes of H1299 cells were cultured in RPMI supplemented with [U-^13C]glucose so that approximately 25% of the total glucose pool was labeled. After 6 hours of culture, the cells were quickly rinsed in ice-cold normal saline, lysed in 1 mL of cold 50% methanol, and frozen in liquid nitrogen. […] The second sample was spiked with 25 nmoles of unlabeled 2-PG and 3-PG, derivatized, and analyzed by GC/MS. […] Assuming a 100 μL volume for the cell pellet, these figures correlate to intracellular concentrations of 66 μM for 2-PG and 81 μM for 3-PG, very close to the values measured by the enzymatic assay.

Assay [2] has as its system H1299 cells. In words: Lactate production assay. It is filed as cell-based, human. On the procedure: Cellular lactate production was measured under normoxia with a fluorescence-based lactate assay kit (MBL). Phenol red-free RPMI medium without FBS was added to a 6 well-plate of subconfluent cells, and was incubated for 1 h at 37° C. After incubation, 1 ml of media from each well was assessed using the lactate assay kit. Cell numbers were counted by a microscope (×40). Oxygen consumption rates were measured with a Clark type electrode equipped with 782 oxygen meter (Strathkelvin Instruments). 1×10^7 cells were resuspended in RPMI 1640 medium with 10% FBS and placed into a water-jacked chamber RC300 (Strathkelvin Instruments) and recording was started immediately. Intracellular ATP concentration was measured by an ATP bioluminescent somatic cell assay kit (Sigma). 1×10^6 cells were trypsinized and resuspended in ultrapure water. Luminescence was measured with spectrofluorometer (SPECTRA Max Gemini; […]) immediately after the addition of ATP enzyme mix to cell suspension.

The subject of assay [3] is H1299 cells. In words: 14C-lipid synthesis and 14C-RNA synthesis assays. It is filed as cell-based, human. The procedure: ^14C-lipids synthesized from ^14C-glucose were measured. […] Wells were washed with an additional 500 μL of hexane:isopropanol solution, and extracts were combined and air dried with heat. Extracted lipids were resuspended in 50 μL of chloroform, and subjected to scintillation counting. Scintillation counts were normalized with cell numbers counted by a microscope (×40). ^14C-RNA synthesized from ^14C-glucose was measured. […] RNA was then extracted using RNeasy columns (Qiagen) and ^14C-RNA was assayed by scintillation counter. ^14C counts for each sample were normalized by the amount of RNA.

The test system of assay [4] is human primary leukemia cells. In words: Primary leukemia cells from human patients. It counts as cell-based. The source says: Approval of use of human specimens was given by the Institutional Review Board of Emory University School of Medicine. All clinical samples were obtained with informed consent with approval by the Emory University Institutional Review Board. Clinical information for the patients was obtained from the pathological files at Emory University Hospital under the guidelines and with approval from the Institutional Review Board of Emory University School of Medicine and according to the Health Insurance Portability and Accountability Act. Only samples from patients that were not previously treated with chemotherapy or radiation therapy were used. Mononuclear cells (MNCs) were isolated from peripheral blood and bone marrow samples from human leukemia patients or peripheral blood samples from healthy donors using lymphocyte separation medium (Cellgro).
Only samples from patients that were not previously treated with chemotherapy or radiation therapy were used. Mononuclear cells (MNCs) were isolated from peripheral blood and bone marrow samples from human leukemia patients or peripheral blood samples from healthy donors using lymphocyte separation medium (Cellgro).

[5] abbreviates: H1299 cells treated with PGMI-004A.
Where [6] appears, read: primary leukemia cells from a representative AML patient.
[7] abbreviates: samples from 7 out of 8 leukemia patients.

As for `O=C1c2ccccc2C(=O)c2c1cc(S(=O)(=O)Nc1ccc(C(F)(F)F)cc1)c(O)c2O` [PGMI-004A, N-(4-trifluoromethyl)-penyl-3,4-dihydroxy-9,10-dioxo-2-anthracenesulfonamide], in the assay with H1299 cells [1] (setting [5]), the 2-PG levels result is listed as “decreased” and the 3-PG levels result is “increased”. For the same molecule, the lactate production entry with H1299 cells [2] (setting [5]) was “significantly reduced lactate production”. Moreover, in the assay on H1299 cells [3] (setting [5]), the “biosynthesis of RNA” value is “reduced” and the biosynthesis of lipids result is “reduced”. Further, in assay [4] (setting [6]), the 2-PG levels result is reported as “decreased” and the 3-PG levels result was “increased”. For the same molecule, in assay [4] (setting [7]), the PGAM1 activity result is “reduced PGAM1 activity”, the cell viability result is “decreased cell viability” and the lactate production entry is reported as “reduced”.

On to `COC(=O)[C@@H](CO)OP(=O)(O)O` [methyl-2-PG, methyl ester of D(+)-2-phosphoglyceric acid, reference compound], for which the 2-PG cellular levels result in the assay with H1299 cells [1] (diverse PGAM1 knockdown cancer cells treated with methyl-2-PG) is “increased 2-PG cellular levels”. Moreover, the 3-PG concentrations result in the assay with H1299 cells [1] (diverse PGAM1 knockdown cells treated with methyl-2-PG) is “decreased 3-PG concentrations”. Also, in the assay on H1299 cells [2] (H1299 cells with stable knockdown of PGAM1, methyl-2-PG), the lactate production entry is “rescues the reduced lactate production”. The “biosynthesis of RNA and lipids” value in the assay on H1299 cells [3] (H1299 PGAM1 knockdown cells, methyl-2-PG) is given as “rescues”. In assay [4] (representative AML patients, methyl-2-PG added to PGMI-004A), the “cell viability in PGMI-004A-treated primary leukemia cells” value is reported as “rescues the decreased cell viability”.
